Laboratory results: patent US20070082068A1, “Il-8 production promoters and use thereof” (priority 2003, published 2007)

Key:
[1] = system: IL-8 production by Caco-2 cells; assay: Effect of promoting IL-8 production by Caco-2 cells (sandwich ELISA of culture supernatants); assay type: cell-based, human; conditions: compounds at final concentration 100 μg/ml; 6-hour culture, then 12 hours in additive-free media; differentiated Caco-2 cells; significant difference P<0.01
Procedure: Caco-2 cells (human colon cancer-derived cell line; American Type Culture Collection, Rockville, Md., U.S.A.) were used as small-intestinal epithelial cell models to evaluate the influence of peppermint, dokudami (houttuynia herb), and licorice extracts on IL-8 production by the cells.
(§1) The Caco-2 cells were subcultured in 24-well plates. The resulting cells were cultured at 37° C. for 14 days under 5% CO2 conditions and thereby differentiated into small-intestinal epithelioid cells. Culture media used were DMEM media (SIGMA Corp.) containing 10% fetal calf serum, 1% non essential amino acid solution, 2% glutamine, 100 U/ml penicillin, and 100 μg/ml streptomycin. A peppermint extract obtained in Example 1, a dokudami (houttuynia herb) extract obtained in Example 2, and a licorice extract obtained in Example 3 were added at each final concentration of 100 μg/ml to the media, and the cells were cultured therein. After 6-hour culture, the media were replaced with additive-free media, followed by additional culture for 12 hours. The resulting culture supernatants were subjected to sandwich ELISA assay (Eckmann, L., et al., Gastroenterology, 105, 1689-1697, 1993) to quantify the amount of IL-8 in the culture supernatants.
Caco-2 cells (human colon cancer-derived cell line; American Type Culture Collection, Rockville, Md., U.S.A.) were used as small-intestinal epithelial cell models to evaluate the influence of α-humulene, α-pinene, β-pinene and L-menthol on IL-8 production by the cells.
as §1, with “5% Co2” for “5% CO2”, “streptomycin. α-humulene (SIGMA Corp.), α-pinene (SIGMA Corp.), β-pinene (SIGMA Corp.),” for “streptomycin. A peppermint extract obtained in Example 1, a dokudami (houttuynia herb) extract obtained in Example 2,”, “and L-menthol (SIGMA Corp.)” for “and a licorice extract obtained in Example 3”, “media was” for “media were”, “assay” for “assay (Eckmann, L., et al., Gastroenterology, 105, 1689-1697, 1993)”

[2] = system: Caco-2 cells; assay: Evaluation of cytotoxicity by LDH (lactate dehydrogenase) assay; assay type: cell-based; conditions: 100 μg/ml; 24 hours; differentiated Caco-2 cells
Procedure: The cytotoxicity of peppermint, dokudami (houttuynia herb), licorice extracts was evaluated with Caco-2 cells. The Caco-2 cells differentiated into small-intestinal epithelioid cells in the same way as in Example 4 were cultured for 24 hours in media containing the peppermint, dokudami (houttuynia herb), and licorice extracts at each final concentration of 100 μg/ml. Subsequently, the media were removed, and the resulting cells were washed twice with PBS (phosphate buffered saline) (−) (Nissui Co., Ltd.). The cells were further supplemented with 700 μl of PBS (−) and left undisturbed at 37° C. for 2 hours. […] In summary, this assay is a method for quantifying cytotoxicity based on the activity of LDH released from dead cells by colormetrically determining formazan converted from a tetrazolium salt serving as a coloring reagent. The rate of free LDH (%) was calculated according to the equation below by using the LDH concentration in the collected PBS (−) as the amount of free LDH and the LDH concentration in the cell lysate as the amount of intracellular LDH. […]
The cytotoxicity of α-humulene was evaluated with Caco-2 cells. […] The rate of free LDH (6) was calculated according to the equation below by using the LDH concentration in the collected PBS (—) as the amount of free LDH and the LDH concentration in the cell lysate as the amount of intracellular LDH. […]

Row | Compound | IL-8 production by the Caco-2 cells (relative IL-8 concentration to a control, FIG. 2) [1] | Cytotoxicity (rate of free LDH vs control, FIG. 4) [2]
1 | C=C1CC[C@@H]2C[C@H]1C2(C)C [β-pinene] | remarkably promoted IL-8 production | –
2 | CC(C)[C@@H]1CC[C@@H](C)C[C@H]1O [L-menthol] | remarkably promoted IL-8 production | –
3 | CC1=CC[C@H]2C[C@@H]1C2(C)C [α-pinene] | remarkably promoted IL-8 production | –
4 | C/C1=C\CC/C(C)=C/CC(C)(C)/C=C/C1 [α-humulene] | remarkably promoted IL-8 production | no cytotoxicity
